This is an account of results in ChEMBL document CHEMBL1127702, “A proposed model of bradykinin bound to the rat B2 receptor and its utility for drug design” (J Med Chem, 1994).

Where a SMILES comes first, the peptide text is derived from it. [ ]: non-standard residue; d: D form. Oic = O=C(O)[C@@H]1C[C@@H]2CCCC[C@@H]2N1; Hyp = O=C(O)[C@@H]1C[C@@H](O)CN1; dTic = O=C(O)[C@H]1Cc2ccccc2CN1

The target of one assay is T1, B2 bradykinin receptor (Cavia porcellus, UniProt O70526).
T1 sequence (O70526 whole entry): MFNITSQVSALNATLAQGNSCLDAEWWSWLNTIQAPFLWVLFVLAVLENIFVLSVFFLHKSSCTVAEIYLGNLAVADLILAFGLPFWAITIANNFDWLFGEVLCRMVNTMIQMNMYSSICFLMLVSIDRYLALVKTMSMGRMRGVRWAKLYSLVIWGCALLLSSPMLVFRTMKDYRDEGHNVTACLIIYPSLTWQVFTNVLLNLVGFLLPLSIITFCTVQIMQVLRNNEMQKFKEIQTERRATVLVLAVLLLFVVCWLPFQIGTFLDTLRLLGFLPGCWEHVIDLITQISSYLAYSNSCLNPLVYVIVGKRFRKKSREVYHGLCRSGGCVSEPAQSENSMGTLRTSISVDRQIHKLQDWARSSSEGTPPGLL
Kind of assay: Binding affinity towards bradykinin receptor B2 using [3H]bradykinin.

Another assay is filed under the species Cavia porcellus. Kind of assay: Compound was tested for bradykinin-induced contractions in guinea pig ileum. The format is functional. The conditions noted are these: read-out: pA2 (converted).

A word on the Ki: it is a measure of affinity in units of concentration, obtained from inhibition or displacement. Read a high Ki as a looser hold on the target. `NC(N)=NCCC[C@@H](N)C(=O)N[C@@H](CCCN=C(N)N)C(=O)N1CCC[C@H]1C(=O)N1C[C@H](O)C[C@H]1C(=O)NCC(=O)N[C@@H](Cc1ccccc1)C(=O)N[C@@H](CO)C(=O)N1Cc2ccccc2C[C@@H]1C(=O)N1[C@H](C(=O)N[C@@H](CCCN=C(N)N)C(=O)O)C[C@@H]2CCCC[C@@H]21` (H-[dR]RP[Hyp]GFS[dTic][Oic]R-OH) had a Ki on B2 bradykinin receptor of 0.11 nM. For the same molecule, the Kb in the assay filed under Cavia porcellus was 1.58 nM.
